# Source: paper PMC9871236, “Differentiated HT22 cells as a novel model for in vitro screening of serotonin reuptake inhibitors” (Frontiers in Pharmacology, 2023)
# Biological target: T1, serotonin transporter (SERT) (Mus musculus, UniProt Q60857)
# T1 construct: gene Slc6a4
# Assay: fluoxetine-sensitive accumulation of fluorescent substrate ([…]) in HT22 cells
# Type: cell-based
# T1 sequence (Q60857 whole entry): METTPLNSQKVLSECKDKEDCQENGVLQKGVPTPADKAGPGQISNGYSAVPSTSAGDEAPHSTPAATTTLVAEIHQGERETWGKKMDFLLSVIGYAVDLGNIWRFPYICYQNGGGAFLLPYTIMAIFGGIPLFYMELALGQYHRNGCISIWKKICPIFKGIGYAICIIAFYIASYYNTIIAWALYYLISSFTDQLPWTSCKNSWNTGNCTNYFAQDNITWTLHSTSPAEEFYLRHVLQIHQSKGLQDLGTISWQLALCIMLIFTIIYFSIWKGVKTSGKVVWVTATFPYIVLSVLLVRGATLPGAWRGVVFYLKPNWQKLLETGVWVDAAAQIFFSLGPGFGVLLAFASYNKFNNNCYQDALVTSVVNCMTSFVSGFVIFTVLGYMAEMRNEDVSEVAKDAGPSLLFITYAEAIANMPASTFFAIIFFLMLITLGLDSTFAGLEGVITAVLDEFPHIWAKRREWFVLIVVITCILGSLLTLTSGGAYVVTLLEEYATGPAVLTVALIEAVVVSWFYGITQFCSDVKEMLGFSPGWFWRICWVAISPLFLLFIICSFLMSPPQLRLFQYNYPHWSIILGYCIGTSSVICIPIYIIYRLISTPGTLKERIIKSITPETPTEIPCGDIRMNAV
smiles,measurement,value
"CN(C)c1ccc(-c2cc[n+](C)cc2)cc1 [APP+, 4-(4-(dimethylamino)phenyl)-1-methylpyridinium iodide]",fluoxetine-sensitive accumulation of fluorescent substrate (10 uM) in HT22 cells,A significant increase in APP^+ reuptake was detected in differentiated HT22 cells compared to undifferentiated cells
